Assay results as given in patent publication EP0354047A2, “Herbicidal method using atrazine” (MAY & BAKER LIMITED, priority 1988, dated 1990).

How the values were obtained:
maize var.Irla = assay: Experiment 5: glasshouse, crop plants at 3 leaf stage, percentage phytotoxicity after 12 days; details: for % crop phytotoxicity Maize (3 leaves): Compound 74 0 g/ha
Procedure: An experiment was carried out to determine the biological interaction between atrazine and Compound 74 on maize. A wide range of dose rates of atrazine i.e. 250, 500, 1000 and 2000 g/ha (in a commercial suspension concentrate formulation containing 500g/l w/v atrazine) and of Compound 74 i.e. 31, 63, 125, 250, 1000 and 2000 g/ha (in a composition according to Example 2 as described hereinafter) were applied in a spray volume of 290litres/ha to four replicate 10cm square plastic plant pots of loam soil containing one maize plant, at the 3 leaf growth stage. Agricultural surfactant ('Agral') was added to the spray dilutions to give 0.2%v/v concentration.
After spraying the pots were arranged in randomised blocks in a glasshouse and watered as necessary. After 12 days the plants were assessed for percentage phytotoxicity (reduction in green area compared with unsprayed plants) (0 = no effect 100 = complete destruction).
E = X + Y […] where E, X and Y are percentage phytotoxicity.
The ED values were then used to plot an isobole according to the method of P.M.L. Tammes op cit. The results of percentage phytotoxicity, the ED₂₀ values calculated from them and the calculated expected value are given in Table 9.

[1] = test system: Digitaria horizontalis (DIGHO); assay: Experiment 1: field experiment, post-emergence spray, % control 29 days after application; assay type: in vivo; details: Atrazine 1500g/ha
Procedure: (§1) Duplicate 12m² plots were sprayed post-emergence with 250g or 500g/ha Compound 1 (in a composition according to Example 1 as described hereinafter) or 1500g/ha atrazine (in a commercial aqueous suspension concentrate formulation containing 500g/l w/v atrazine or a combination (as a tank mix) of the two herbicides in a volume of 300 litres/ha. The following control figures were recorded on the grass weeds Brachiaria plantaginea (BRAPL), Digitaria horizontalis (DIGHO) and Eleusine indica (ELEIN) 29 days after application.

[2] = test system: Brachiaria plantaginea (BRAPL); assay: as above; assay type: in vivo; details: Atrazine 1500g/ha
Procedure: as §1

Eleusine indica [3] = assay: Experiment 3: glasshouse, post-emergence, fresh weight after 19 days, % inhibition of growth; assay type: in vivo; details: 3 leaves
Procedure: (§2) A series of experiments was carried out to determine the nature of the biological interaction between atrazine and five compounds of general formula I on a range of weed species. […] The growth stages of the plants at spraying are also presented with the results. Agricultural surfactant (nonyl phenol ethylene oxide condensate containing 9 moles ethylene oxide marketed as 'Agral') was added to all spray dilutions to give 0.2% v/v concentration. […] After 19 days the fresh weight of vegetation in each pot was determined. […] E = […]00003:character} where E, X and Y are percentage inhibition of growth. In addition, the ED50 or ED90 values (the application rates giving 50% or 90% inhibition of growth, respectively) were calculated from the results for the piperidinedione alone and with increasing rates of atrazine.

Bidens pilosa = assay: as above; assay type: in vivo; details: 2 leaves
Procedure: as §2

Solanum nigrum = assay: as above; assay type: in vivo; details: for ED₉₀: Atrazine alone; for inhibition at 8 g/ha / inhibition at 16 g/ha / inhibition at 31 g/ha / inhibition at 63 g/ha / inhibition at 125 g/ha: Solanum nigrum, post-emergence; for inhibition at 8 g/ha: Atrazine 8 g/ha alone; for inhibition at 16 g/ha: Atrazine 16 g/ha alone; for inhibition at 31 g/ha: Atrazine 31 g/ha alone; for inhibition at 63 g/ha: Atrazine 63 g/ha alone; for inhibition at 125 g/ha: Atrazine 125 g/ha alone
Procedure: as §2

Digitaria sanguinalis = assay: as above; assay type: in vivo; details: 3 leaves
Procedure: as §2

Xanthium strumarium = assay: as above; assay type: in vivo; details: 2 leaves
Procedure: as §2

Brassica kaber = assay: as above; assay type: in vivo; details: for ED₅₀ / ED₉₀: Atrazine alone; for inhibition at 8 g/ha / inhibition at 16 g/ha / inhibition at 31 g/ha / inhibition at 63 g/ha / inhibition at 125 g/ha: Mutarda arvensis, post-emergence; for inhibition at 8 g/ha: Atrazine 8 g/ha alone; for inhibition at 16 g/ha: Atrazine 16 g/ha alone; for inhibition at 31 g/ha: Atrazine 31 g/ha alone; for inhibition at 63 g/ha: Atrazine 63 g/ha alone; for inhibition at 125 g/ha: Atrazine 125 g/ha alone
Procedure: as §2

Amaranthus retroflexus = assay: as above; assay type: in vivo; details: for inhibition at 8 g/ha / inhibition at 16 g/ha / inhibition at 31 g/ha / inhibition at 63 g/ha / inhibition at 125 g/ha: Amaranthus retroflexus, post-emergence; for inhibition at 8 g/ha: Atrazine 8 g/ha alone; for inhibition at 16 g/ha: Atrazine 16 g/ha alone; for inhibition at 31 g/ha: Atrazine 31 g/ha alone; for inhibition at 63 g/ha: Atrazine 63 g/ha alone; for inhibition at 125 g/ha: Atrazine 125 g/ha alone; for ED₉₀: Atrazine alone
Procedure: as §2

Sesbania exactata = assay: as above; assay type: in vivo; details: 2 leaves
Procedure: as §2

Eleusine indica [4] = assay: Experiment 2: glasshouse experiment, seedlings at 4-leaf stage, percentage phytotoxicity after 19 days; assay type: in vivo
Procedure: Agricultural surfactant - nonylphenol ethylene oxide condensate containing 9 moles ethylene oxide (in a commercial composition) was added to all spray dilutions to give 0.2% v/v concentration. […] The ED50 values were as follows:- The results were then used to plot an isobole with a "two-sided effect" according to the methods of […] op. cit. The isobole produced, shown hereinafter in Figure 1 was clearly a type III curve ([…]., page 75), characteristic of synergism.

## CCNc1nc(Cl)nc(NC(C)C)n1 [Atrazine, 2-chloro-4-ethylamino-6-isopropylamino-1,3,5-triazine]
Maize var.Irla; Atrazine alone
  ED₂₀: ED₂₀(g/ha) ∞
  crop phytotoxicity: no crop phytotoxicity
Maize var.Irla; Atrazine 250 g/ha
  % crop phytotoxicity Maize (3 leaves): 0%
Maize var.Irla; Atrazine 500 g/ha
  % crop phytotoxicity Maize (3 leaves): 0%
Maize var.Irla; Atrazine 1000 g/ha
  % crop phytotoxicity Maize (3 leaves): 0%
Maize var.Irla; Atrazine 2000 g/ha
  % crop phytotoxicity Maize (3 leaves): 0%
[1]
  % control observed: 0%
[2]
  % control observed: 10%
Eleusine indica [3]; Atrazine alone
  ED₅₀: ED₅₀ (g/ha)664.61
Eleusine indica [3]; Eleusine indica, post-emergence, Atrazine 125 g/ha alone
  inhibition at 125 g/ha: 4%
Eleusine indica [3]; Eleusine indica, post-emergence, Atrazine 500 g/ha alone
  inhibition at 500 g/ha: 36%
Eleusine indica [3]; Eleusine indica, post-emergence, Atrazine 1000 g/ha alone
  inhibition at 1000 g/ha: 66%
Bidens pilosa; Atrazine alone
  ED₅₀: ED₅₀(g/ha)63.17
Bidens pilosa; Bidens pilosa, post-emergence, Atrazine 8 g/ha alone
  inhibition at 8 g/ha: 0%
Bidens pilosa; Bidens pilosa, post-emergence, Atrazine 16 g/ha alone
  inhibition at 16 g/ha: 0%
Bidens pilosa; Bidens pilosa, post-emergence, Atrazine 31 g/ha alone
  inhibition at 31 g/ha: 5%
Bidens pilosa; Bidens pilosa, post-emergence, Atrazine 63 g/ha alone
  inhibition at 63 g/ha: 46%
Bidens pilosa; Bidens pilosa, post-emergence, Atrazine 125 g/ha alone
  inhibition at 125 g/ha: 92%
Solanum nigrum; 1-2 leaves, Table 4
  ED₉₀: ED₉₀(g/ha) 121.27
  inhibition at 8 g/ha: 9%
  inhibition at 16 g/ha: 47%
  inhibition at 31 g/ha: 47%
  inhibition at 63 g/ha: 67%
  inhibition at 125 g/ha: 90%
Solanum nigrum; 1 leaf, Table 6
  ED₉₀: ED₉₀(g/ha) 59.35
  inhibition at 8 g/ha: 19%
  inhibition at 16 g/ha: 45%
  inhibition at 31 g/ha: 73%
  inhibition at 63 g/ha: 94%
  inhibition at 125 g/ha: 97%
Solanum nigrum; 2 leaves, Table 7
  ED₉₀: ED₉₀(g/ha) 72.94
  inhibition at 8 g/ha: 6%
  inhibition at 16 g/ha: 27%
  inhibition at 31 g/ha: 35%
  inhibition at 63 g/ha: 76%
  inhibition at 125 g/ha: 99%
Digitaria sanguinalis; Atrazine alone
  ED₉₀: ED₉₀ (g/ha) ∞
Digitaria sanguinalis; Digitaria sanguinalis, post-emergence, Atrazine 125 g/ha alone
  inhibition at 125 g/ha: 25%
Digitaria sanguinalis; Digitaria sanguinalis, post-emergence, Atrazine 500 g/ha alone
  inhibition at 500 g/ha: 24%
Digitaria sanguinalis; Digitaria sanguinalis, post-emergence, Atrazine 1000 g/ha alone
  inhibition at 1000 g/ha: 32%
Xanthium strumarium; Atrazine alone
  ED₉₀: ED₉₀(g/ha) 138.01
Xanthium strumarium; Xanthium strumarium, post-emergence, Atrazine 8 g/ha alone
  inhibition at 8 g/ha: 25%
Xanthium strumarium; Xanthium strumarium, post-emergence, Atrazine 16 g/ha alone
  inhibition at 16 g/ha: 21%
Xanthium strumarium; Xanthium strumarium, post-emergence, Atrazine 31 g/ha alone
  inhibition at 31 g/ha: 72%
Xanthium strumarium; Xanthium strumarium, post-emergence, Atrazine 63 g/ha alone
  inhibition at 63 g/ha: 59%
Xanthium strumarium; Xanthium strumarium, post-emergence, Atrazine 125 g/ha alone
  inhibition at 125 g/ha: 84%
Brassica kaber; 2-3 leaves, Table 4
  ED₅₀: ED₅₀(g/ha) 88.39
  inhibition at 8 g/ha: 16%
  inhibition at 16 g/ha: 5%
  inhibition at 31 g/ha: 19%
  inhibition at 63 g/ha: 30%
  inhibition at 125 g/ha: 57%
Brassica kaber; 2 leaves, Table 5
  ED₉₀: ED₉₀(g/ha) 77
  inhibition at 8 g/ha: 0%
  inhibition at 16 g/ha: 21%
  inhibition at 31 g/ha: 42%
  inhibition at 63 g/ha: 60%
  inhibition at 125 g/ha: 100%
Brassica kaber; 2 leaves, Table 6
  ED₉₀: ED₉₀(g/ha) 62.14
  inhibition at 8 g/ha: 0%
  inhibition at 16 g/ha: 35%
  inhibition at 31 g/ha: 41%
  inhibition at 63 g/ha: 91%
  inhibition at 125 g/ha: 100%
Brassica kaber; 2 leaves, Table 7
  ED₅₀: ED₅₀(g/ha) 78.24
  inhibition at 8 g/ha: 0%
  inhibition at 16 g/ha: 0%
  inhibition at 31 g/ha: 17%
  inhibition at 63 g/ha: 27%
  inhibition at 125 g/ha: 75%
Amaranthus retroflexus; 2-4 leaves, Table 4
  inhibition at 8 g/ha: 8%
  inhibition at 16 g/ha: 26%
  inhibition at 31 g/ha: 39%
  inhibition at 63 g/ha: 56%
  inhibition at 125 g/ha: 96%
  ED₉₀: ED₉₀(g/ha) 105.79
Amaranthus retroflexus; 2 leaves, Table 1
  inhibition at 8 g/ha: 36%
  inhibition at 16 g/ha: 58%
  inhibition at 31 g/ha: 81%
  inhibition at 63 g/ha: 88%
  inhibition at 125 g/ha: 95%
  ED₉₀: ED₉₀(g/ha) 68.57
Amaranthus retroflexus; 2 leaves, Table 5
  inhibition at 8 g/ha: 0%
  inhibition at 16 g/ha: 58%
  inhibition at 31 g/ha: 85%
  inhibition at 63 g/ha: 71%
  inhibition at 125 g/ha: 99%
  ED₉₀: ED₉₀(g/ha) 53
Sesbania exactata; Atrazine alone
  ED₉₀: ED₉₀(g/ha)76.91
Sesbania exactata; Sesbania, post-emergence, Atrazine 8 g/ha alone
  inhibition at 8 g/ha: 21%
Sesbania exactata; Sesbania, post-emergence, Atrazine 16 g/ha alone
  inhibition at 16 g/ha: 34%
Sesbania exactata; Sesbania, post-emergence, Atrazine 31 g/ha alone
  inhibition at 31 g/ha: 68%
Sesbania exactata; Sesbania, post-emergence, Atrazine 63 g/ha alone
  inhibition at 63 g/ha: 86%
Sesbania exactata; Sesbania, post-emergence, Atrazine 125 g/ha alone
  inhibition at 125 g/ha: 96%
Eleusine indica [4]; Atrazine 125 g/ha alone
  percentage phytotoxicity: 2%
Eleusine indica [4]; Atrazine 250 g/ha alone
  percentage phytotoxicity: 13%
Eleusine indica [4]; Atrazine 500 g/ha alone
  percentage phytotoxicity: 17%
Eleusine indica [4]; Atrazine 1000 g/ha alone
  percentage phytotoxicity: 43%
Eleusine indica [4]; Atrazine alone, 50% phytotoxicity
  ED₅₀: 1193 g/ha
